Columns and labels:
[1] = target: T1, Polyamine deacetylase HDAC10 (Homo sapiens, UniProt Q969S8); assay: Inhibition of recombinant human HDAC10 after 60 mins by fluorescence assay
T1 sequence (Q969S8 whole entry): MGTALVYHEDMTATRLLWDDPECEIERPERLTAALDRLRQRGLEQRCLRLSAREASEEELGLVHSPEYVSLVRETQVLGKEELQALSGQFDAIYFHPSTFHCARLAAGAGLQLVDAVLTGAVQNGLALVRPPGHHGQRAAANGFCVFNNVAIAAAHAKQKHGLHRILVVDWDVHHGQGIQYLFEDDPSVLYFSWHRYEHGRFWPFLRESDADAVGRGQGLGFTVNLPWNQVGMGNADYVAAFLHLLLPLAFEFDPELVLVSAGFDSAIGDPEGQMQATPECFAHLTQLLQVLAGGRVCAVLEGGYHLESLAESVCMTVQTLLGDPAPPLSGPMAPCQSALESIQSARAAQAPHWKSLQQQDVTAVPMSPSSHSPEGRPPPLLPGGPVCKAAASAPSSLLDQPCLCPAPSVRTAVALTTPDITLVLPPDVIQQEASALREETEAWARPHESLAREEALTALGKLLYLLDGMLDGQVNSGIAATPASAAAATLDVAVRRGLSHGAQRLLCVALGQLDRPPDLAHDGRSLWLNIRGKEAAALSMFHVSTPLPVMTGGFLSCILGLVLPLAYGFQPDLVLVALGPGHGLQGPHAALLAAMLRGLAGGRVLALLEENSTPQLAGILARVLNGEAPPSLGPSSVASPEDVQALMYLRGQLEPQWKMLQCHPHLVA

[2] = target: Histone deacetylase 2 (Homo sapiens, UniProt Q92769); assay: Inhibition of recombinant human HDAC2 after 60 mins by fluorescence assay
[3] = target: Histone deacetylase 5 (Homo sapiens, UniProt Q9UQL6); assay: Inhibition of recombinant human HDAC5 after 60 mins by fluorescence assay
[4] = target: T2, Histone deacetylase 8 (Homo sapiens, UniProt Q9BY41); assay: Inhibition of recombinant human HDAC8 after 60 mins by fluorescence assay
T2 sequence (Q9BY41 whole entry): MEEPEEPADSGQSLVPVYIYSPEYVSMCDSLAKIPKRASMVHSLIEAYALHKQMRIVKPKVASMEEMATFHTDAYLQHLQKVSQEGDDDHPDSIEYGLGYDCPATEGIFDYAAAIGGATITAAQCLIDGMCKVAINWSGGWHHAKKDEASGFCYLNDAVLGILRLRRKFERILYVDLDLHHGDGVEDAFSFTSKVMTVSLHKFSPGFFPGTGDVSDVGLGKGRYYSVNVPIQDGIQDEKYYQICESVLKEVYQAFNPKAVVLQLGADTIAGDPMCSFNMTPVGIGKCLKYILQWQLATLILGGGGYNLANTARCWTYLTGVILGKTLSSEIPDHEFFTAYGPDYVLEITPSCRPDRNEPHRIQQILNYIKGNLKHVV

[5] = target: T3, Histone deacetylase 7 (Homo sapiens, UniProt Q8WUI4); assay: Inhibition of recombinant human HDAC7 after 60 mins by fluorescence assay
T3 sequence (Q8WUI4 whole entry): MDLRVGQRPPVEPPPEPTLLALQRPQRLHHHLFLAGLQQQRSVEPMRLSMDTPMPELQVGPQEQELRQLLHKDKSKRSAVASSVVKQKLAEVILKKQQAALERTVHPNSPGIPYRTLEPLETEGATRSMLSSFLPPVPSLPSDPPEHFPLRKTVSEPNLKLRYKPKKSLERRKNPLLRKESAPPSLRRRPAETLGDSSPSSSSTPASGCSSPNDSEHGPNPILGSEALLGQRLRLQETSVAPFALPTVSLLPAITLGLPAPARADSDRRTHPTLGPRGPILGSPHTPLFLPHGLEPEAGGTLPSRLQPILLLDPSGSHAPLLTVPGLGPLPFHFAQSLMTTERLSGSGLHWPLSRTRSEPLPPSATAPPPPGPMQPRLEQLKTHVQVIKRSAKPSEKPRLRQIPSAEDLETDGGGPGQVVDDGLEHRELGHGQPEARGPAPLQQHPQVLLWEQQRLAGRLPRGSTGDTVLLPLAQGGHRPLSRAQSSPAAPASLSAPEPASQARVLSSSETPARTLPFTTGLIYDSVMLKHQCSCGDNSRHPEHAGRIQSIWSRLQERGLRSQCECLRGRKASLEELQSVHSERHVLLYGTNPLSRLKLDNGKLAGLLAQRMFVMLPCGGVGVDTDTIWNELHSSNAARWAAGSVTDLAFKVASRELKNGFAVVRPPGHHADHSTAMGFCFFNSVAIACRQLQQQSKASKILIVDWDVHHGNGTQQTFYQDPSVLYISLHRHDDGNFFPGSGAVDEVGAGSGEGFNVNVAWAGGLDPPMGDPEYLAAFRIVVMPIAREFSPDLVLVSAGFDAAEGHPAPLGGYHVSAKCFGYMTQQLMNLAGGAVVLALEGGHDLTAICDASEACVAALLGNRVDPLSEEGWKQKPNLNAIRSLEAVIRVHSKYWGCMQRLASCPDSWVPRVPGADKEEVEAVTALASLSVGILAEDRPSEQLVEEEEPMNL

[6] = target: T4, Histone deacetylase 11 (Homo sapiens, UniProt Q96DB2); assay: Inhibition of recombinant human HDAC11 after 60 mins by fluorescence assay
T4 sequence (Q96DB2 whole entry): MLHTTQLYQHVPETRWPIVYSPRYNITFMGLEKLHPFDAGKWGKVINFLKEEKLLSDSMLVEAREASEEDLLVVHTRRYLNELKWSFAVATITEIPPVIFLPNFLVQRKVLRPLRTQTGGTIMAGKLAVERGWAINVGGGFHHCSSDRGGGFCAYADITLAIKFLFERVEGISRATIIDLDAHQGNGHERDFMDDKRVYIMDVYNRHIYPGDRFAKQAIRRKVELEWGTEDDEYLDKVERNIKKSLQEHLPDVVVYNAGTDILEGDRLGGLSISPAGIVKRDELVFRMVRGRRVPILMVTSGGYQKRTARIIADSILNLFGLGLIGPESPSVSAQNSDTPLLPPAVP

[7] = target: Histone deacetylase 9 (Homo sapiens, UniProt Q9UKV0); assay: Inhibition of recombinant human HDAC9 after 60 mins by fluorescence assay
[8] = target: T5, Protein deacetylase HDAC6 (Homo sapiens, UniProt Q9UBN7); assay: Inhibition of recombinant human HDAC6 after 60 mins by fluorescence assay
T5 sequence (Q9UBN7 whole entry): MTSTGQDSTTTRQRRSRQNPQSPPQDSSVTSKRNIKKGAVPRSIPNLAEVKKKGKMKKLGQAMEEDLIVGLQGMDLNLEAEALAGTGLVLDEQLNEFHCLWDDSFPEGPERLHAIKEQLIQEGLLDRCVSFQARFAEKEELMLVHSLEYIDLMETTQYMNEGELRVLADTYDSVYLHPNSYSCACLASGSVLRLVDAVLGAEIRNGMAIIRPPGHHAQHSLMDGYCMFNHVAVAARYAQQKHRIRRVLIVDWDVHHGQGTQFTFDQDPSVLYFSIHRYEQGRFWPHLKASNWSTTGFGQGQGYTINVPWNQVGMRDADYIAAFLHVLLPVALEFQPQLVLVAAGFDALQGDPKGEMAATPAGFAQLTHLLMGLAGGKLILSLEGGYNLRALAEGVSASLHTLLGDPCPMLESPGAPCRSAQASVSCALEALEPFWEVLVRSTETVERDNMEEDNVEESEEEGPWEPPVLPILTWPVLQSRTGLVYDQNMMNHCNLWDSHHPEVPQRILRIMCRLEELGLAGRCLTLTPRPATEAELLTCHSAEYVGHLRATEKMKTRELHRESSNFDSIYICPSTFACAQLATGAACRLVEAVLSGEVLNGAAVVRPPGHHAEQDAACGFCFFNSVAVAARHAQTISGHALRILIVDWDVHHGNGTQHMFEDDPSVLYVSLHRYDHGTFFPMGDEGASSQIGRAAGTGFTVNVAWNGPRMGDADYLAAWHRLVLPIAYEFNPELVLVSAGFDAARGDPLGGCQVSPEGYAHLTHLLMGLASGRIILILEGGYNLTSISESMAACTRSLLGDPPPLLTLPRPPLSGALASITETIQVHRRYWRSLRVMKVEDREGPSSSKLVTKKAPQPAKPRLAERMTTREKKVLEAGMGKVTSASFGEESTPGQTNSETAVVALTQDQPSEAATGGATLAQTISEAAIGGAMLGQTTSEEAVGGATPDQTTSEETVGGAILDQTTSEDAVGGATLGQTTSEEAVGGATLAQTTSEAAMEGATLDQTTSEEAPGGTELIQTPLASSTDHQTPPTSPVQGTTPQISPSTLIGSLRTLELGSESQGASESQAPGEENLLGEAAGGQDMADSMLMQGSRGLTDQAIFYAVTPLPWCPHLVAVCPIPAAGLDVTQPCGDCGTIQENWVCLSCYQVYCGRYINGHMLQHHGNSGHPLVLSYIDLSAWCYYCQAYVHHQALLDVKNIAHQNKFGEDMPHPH

[9] = target: Histone deacetylase 4 (Homo sapiens, UniProt P56524); assay: Inhibition of recombinant human HDAC4 after 60 mins by fluorescence assay
[10] = test system: U-937; assay: Antiproliferative activity against human U937 cells after 72 hrs by CCK8 assay; format: functional
[11] = test system: DU-145; assay: Antiproliferative activity against human DU145 cells after 72 hrs by CCK8 assay; format: functional
[12] = Antiproliferative activity against human WI38 cells after 72 hrs by CCK8 assay; format: cell-based, WI-38
[13] = target: Histone deacetylase 1 (Homo sapiens, UniProt Q13547); assay: Inhibition of recombinant human HDAC1 after 60 mins by fluorescence assay
[14] = Antiproliferative activity against human MOLT4 cells after 72 hrs by CCK8 assay; format: functional, MOLT-4
[15] = Antiproliferative activity against human HLF cells after 72 hrs by CCK8 assay; format: cell-based

Histone deacetylase 9, sequence (Q9UKV0 whole entry): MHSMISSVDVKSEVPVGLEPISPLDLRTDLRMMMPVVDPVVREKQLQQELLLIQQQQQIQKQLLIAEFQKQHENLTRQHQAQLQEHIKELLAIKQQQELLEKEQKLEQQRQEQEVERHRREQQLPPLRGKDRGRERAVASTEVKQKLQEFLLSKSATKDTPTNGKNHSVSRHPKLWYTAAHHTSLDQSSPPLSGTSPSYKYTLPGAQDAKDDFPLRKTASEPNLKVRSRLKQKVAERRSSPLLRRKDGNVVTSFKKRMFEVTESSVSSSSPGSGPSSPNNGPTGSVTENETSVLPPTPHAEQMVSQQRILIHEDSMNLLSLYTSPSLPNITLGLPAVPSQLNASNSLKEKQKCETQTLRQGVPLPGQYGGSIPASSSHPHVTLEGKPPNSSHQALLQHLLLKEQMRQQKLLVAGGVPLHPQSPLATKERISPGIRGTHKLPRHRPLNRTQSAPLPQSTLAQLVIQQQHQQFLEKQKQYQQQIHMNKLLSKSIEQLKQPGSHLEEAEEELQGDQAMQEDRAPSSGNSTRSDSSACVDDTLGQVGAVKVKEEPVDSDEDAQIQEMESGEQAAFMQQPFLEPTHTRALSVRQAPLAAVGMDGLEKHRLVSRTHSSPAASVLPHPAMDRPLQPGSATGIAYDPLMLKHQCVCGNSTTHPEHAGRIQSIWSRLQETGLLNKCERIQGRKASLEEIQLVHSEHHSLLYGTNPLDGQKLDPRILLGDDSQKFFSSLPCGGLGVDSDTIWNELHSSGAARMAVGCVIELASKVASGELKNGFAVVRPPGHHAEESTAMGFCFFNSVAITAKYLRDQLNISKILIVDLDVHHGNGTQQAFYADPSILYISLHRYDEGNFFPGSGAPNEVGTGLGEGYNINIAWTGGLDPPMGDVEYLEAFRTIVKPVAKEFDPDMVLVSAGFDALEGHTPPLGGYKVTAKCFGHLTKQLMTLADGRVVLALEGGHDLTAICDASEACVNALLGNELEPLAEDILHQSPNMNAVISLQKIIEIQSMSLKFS
Histone deacetylase 4, sequence (P56524 whole entry): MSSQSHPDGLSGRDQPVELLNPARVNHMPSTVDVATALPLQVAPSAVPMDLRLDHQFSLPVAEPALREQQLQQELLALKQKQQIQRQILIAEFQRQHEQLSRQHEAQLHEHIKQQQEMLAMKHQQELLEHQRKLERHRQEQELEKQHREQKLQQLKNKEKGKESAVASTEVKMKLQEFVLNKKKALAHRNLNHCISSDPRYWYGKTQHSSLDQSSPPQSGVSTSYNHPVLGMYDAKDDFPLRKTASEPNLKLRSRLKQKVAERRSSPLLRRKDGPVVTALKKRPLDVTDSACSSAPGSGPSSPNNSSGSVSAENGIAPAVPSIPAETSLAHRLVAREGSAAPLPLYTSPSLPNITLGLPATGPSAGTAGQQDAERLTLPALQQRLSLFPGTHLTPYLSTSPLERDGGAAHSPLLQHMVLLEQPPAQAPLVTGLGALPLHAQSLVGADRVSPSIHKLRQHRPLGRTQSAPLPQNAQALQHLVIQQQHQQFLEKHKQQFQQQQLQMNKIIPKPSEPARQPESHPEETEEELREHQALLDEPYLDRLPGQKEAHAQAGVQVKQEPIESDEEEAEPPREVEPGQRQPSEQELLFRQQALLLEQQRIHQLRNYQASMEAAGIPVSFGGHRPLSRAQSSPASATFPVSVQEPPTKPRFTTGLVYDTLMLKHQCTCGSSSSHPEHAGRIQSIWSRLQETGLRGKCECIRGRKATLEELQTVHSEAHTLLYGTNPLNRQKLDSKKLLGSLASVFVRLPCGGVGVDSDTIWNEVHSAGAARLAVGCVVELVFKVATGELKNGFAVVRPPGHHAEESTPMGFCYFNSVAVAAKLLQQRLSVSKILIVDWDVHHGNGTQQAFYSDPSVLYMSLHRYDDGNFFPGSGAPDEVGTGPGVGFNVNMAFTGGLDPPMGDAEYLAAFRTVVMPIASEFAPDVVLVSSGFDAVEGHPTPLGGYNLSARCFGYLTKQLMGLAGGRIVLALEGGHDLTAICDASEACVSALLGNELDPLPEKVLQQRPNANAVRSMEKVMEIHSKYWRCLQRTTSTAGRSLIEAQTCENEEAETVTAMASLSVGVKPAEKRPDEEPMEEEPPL
Histone deacetylase 5, sequence (Q9UQL6 whole entry): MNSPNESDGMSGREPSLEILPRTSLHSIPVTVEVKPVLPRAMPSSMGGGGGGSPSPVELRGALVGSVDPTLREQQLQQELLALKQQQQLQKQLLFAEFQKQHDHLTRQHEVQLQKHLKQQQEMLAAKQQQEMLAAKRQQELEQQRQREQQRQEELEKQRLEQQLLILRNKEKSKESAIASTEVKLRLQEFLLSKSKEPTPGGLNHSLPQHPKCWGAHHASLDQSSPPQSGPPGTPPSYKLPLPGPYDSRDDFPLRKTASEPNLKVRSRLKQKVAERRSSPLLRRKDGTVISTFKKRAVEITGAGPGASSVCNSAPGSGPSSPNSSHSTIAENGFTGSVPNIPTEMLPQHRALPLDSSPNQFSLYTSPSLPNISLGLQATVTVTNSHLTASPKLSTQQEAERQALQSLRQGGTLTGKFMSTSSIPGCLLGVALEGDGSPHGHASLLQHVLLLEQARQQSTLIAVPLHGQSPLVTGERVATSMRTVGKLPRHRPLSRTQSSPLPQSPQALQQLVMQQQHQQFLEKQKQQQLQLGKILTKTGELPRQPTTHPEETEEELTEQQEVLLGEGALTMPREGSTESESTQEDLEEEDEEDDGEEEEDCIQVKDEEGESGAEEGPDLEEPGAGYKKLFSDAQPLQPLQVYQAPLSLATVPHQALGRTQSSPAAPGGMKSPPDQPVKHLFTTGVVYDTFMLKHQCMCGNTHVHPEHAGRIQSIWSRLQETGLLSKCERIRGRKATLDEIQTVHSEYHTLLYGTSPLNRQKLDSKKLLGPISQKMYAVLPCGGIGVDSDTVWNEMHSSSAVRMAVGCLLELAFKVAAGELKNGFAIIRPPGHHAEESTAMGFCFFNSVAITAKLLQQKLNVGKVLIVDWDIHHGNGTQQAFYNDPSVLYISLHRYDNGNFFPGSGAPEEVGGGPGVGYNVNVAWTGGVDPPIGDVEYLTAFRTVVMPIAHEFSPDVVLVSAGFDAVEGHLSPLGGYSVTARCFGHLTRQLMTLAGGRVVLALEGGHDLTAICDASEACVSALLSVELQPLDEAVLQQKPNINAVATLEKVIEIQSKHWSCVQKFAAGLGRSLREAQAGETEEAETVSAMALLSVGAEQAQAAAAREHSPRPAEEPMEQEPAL
Histone deacetylase 2, sequence (Q92769 whole entry): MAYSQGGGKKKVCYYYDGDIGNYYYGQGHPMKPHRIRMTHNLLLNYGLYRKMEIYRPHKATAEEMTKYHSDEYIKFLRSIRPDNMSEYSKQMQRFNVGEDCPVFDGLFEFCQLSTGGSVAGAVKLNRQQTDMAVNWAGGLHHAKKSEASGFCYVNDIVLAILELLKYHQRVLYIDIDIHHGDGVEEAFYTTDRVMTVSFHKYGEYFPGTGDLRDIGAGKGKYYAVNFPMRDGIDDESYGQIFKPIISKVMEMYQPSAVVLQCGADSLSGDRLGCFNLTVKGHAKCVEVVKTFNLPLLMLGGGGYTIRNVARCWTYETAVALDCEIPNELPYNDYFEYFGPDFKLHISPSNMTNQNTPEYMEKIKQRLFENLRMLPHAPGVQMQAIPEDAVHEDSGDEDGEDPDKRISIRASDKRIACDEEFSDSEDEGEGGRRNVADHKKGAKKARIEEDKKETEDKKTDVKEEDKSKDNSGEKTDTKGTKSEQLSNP
Histone deacetylase 1, sequence (Q13547 whole entry): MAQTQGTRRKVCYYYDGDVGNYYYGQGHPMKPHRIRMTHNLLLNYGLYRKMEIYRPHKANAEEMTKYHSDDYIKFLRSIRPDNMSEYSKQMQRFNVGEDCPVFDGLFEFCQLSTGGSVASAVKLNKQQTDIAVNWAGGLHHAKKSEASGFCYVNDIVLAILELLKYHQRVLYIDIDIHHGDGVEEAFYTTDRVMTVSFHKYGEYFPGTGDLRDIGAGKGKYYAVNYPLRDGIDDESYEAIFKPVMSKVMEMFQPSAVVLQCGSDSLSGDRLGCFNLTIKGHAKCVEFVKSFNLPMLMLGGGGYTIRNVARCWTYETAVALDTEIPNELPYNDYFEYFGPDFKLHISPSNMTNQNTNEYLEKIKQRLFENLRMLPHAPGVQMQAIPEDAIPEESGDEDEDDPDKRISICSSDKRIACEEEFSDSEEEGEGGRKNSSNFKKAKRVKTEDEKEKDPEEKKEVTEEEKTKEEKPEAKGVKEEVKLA

Row | GI50 [10] | GI50 [11] | Structure (SMILES) | IC50 [1] | IC50 [2] | IC50 [3] | IC50 [4] | IC50 [5] | IC50 [6] | IC50 [7] | IC50 [8] | IC50 [9] | GI50 ([10]; Homo sapiens, U-937, 72 h) | GI50 ([11]; Homo sapiens, DU-145, 72 h) | GI50 at 72 h [12] | IC50 [13] | GI50 ([14]; Homo sapiens, MOLT-4, 72 h) | GI50 at 72 h [15] | GI50 [14]
1 | – | – | C/C=C1\NC(=O)C(CS)NC(=O)[C@@H](C(C)C)NC(=O)C[C@@H](/C=C/CCS)OC(=O)[C@H](C(C)C)NC1=O (single isomer, unassigned) [FR-135313] | 3.9 nM | 1.4 nM | > 10000 nM | 25 nM | 1760 nM | 2360 nM | > 10000 nM | 149 nM | 9570 nM | – | – | – | – | – | – | –
2 | – | – | CCCCCCCC(=O)SCC/C=C/[C@@H]1CC(=O)NCc2nc(cs2)C2=N[C@@](C)(CS2)C(=O)N[C@@H](C(C)C)C(=O)O1 [LARGAZOLE] | 2210 nM | 1010 nM | > 10000 nM | > 10000 nM | > 10000 nM | > 10000 nM | > 10000 nM | – | > 10000 nM | 16.8 nM | 11 nM | 82.5 nM | 69.8 nM | 16.2 nM | 39.7 nM | –
3 | 1460 nM | 1590 nM | O=C(CCCCCCC(=O)Nc1ccccc1)NO [VORINOSTAT] | – | – | – | – | – | – | – | – | – | – | – | 6080 nM | – | – | 1650 nM | 542 nM
4 | – | – | C/C=C1\NC(=O)[C@H]2CSSCC/C=C/[C@H](CC(=O)N[C@H](C(C)C)C(=O)N2)OC(=O)[C@H](C(C)C)NC1=O [ROMIDEPSIN] | 11 nM | – | > 10000 nM | – | > 10000 nM | > 10000 nM | > 10000 nM | – | > 10000 nM | – | – | 5.39 nM | 1050 nM | – | 4.89 nM | –
